Reference: patent US9616107B2, “Therapy for kidney disease and/or heart failure” (priority 2011, dated 2017)
Where two headings read alike, the source gives them in different places. Ends that are not written are not given here.

Assay: Toxicology study of VD in rats: 5-day continuous subcutaneous infusion by Alzet minipumps, plasma VD by radioimmunoassay, clinical observations
Format: in vivo
Details: for maximum tolerated dose for prolonged subcutaneous administration: expected; for Cmin: SC infusion 5 days
Experimental: VD was administered to a rat model via a subcutaneous delivery route to assess the toxicity of VD and to determine if a lethal dosing amount of the VD can be reached by subcutaneous administration. As noted above, a maximum tolerated or lethal dosing amount was not observed for canines.
VD-acetate (Bachem lot 2502022) was prepared in the Tris/Glycerin/m-cresol buffer at a concentration of 3 mg/mL or 15 mg/mL. The VD solution was administered continuously by subcutaneous infusion using Alzet® (Durect Corp.) osmotic minipumps (model 2002) over a period of 5 days to 3 study groups, where each study group (Groups 1-3) contained 3 male and 3 female Sprague Dawley rats.
The continuous subcutaneous delivery dose for Group 1 was calibrated to yield an administration of approximately 100 ng/(kg·min) of VD, which is in the range of a dosing regimen useful for clinical use in humans. […] However, an estimated body weight of 250 g was used for all animals (males and females) for reporting pharmacokinetic and toxicological calculations; therefore, the estimated daily dose is reported as 0.144 mg/kg·day (or 100 ng/(kg·min)) for all animals in Group 1, and the total dose delivered to each animal over the 5-day period was 0.180 mg.
The continuous subcutaneous delivery dose for Group 2 was calibrated to yield an administration of approximately 1000 ng/(kg·min) of VD, which is 10-fold higher than for Group 1. Each rat in Group 2 each had two Alzet pumps implanted to have a combined infusion rate was 1.0 μL/hr of the 15 mg/mL VD solution. The resulting actual mean weight-based doses were 1.026 and 1.629 mg/(kg·day) for males and females, respectively. For the pharmacokinetic calculations, an estimated body weight of 280 g was used for all animals (males and females); therefore, the estimated daily dose was reported as 1.29 mg/(kg·day) (or ˜896 ng/(kg·min)) for all animals in Group 2, and the total dose delivered to each animal over the 5 day period was 1.8 mg.
The continuous subcutaneous delivery dose for Group 3 was calibrated to yield an administration of approximately 2000 ng/(kg·min). Each rat each had four Alzet pumps implanted for a combined infusion rate was 2.0 μL/hr of the 15 mg/mL VD solution. The resulting actual mean weight-based doses were 1.870 and 3.303 mg/(kg·day) for males and females, respectively. For pharmacokinetic calculations, an estimated body weight of 300 g was used for all animals (males and females); therefore the estimated daily dose was reported as 2.4 mg/(kg·day) (or (or ˜1667 ng/(kg·min)) for all animals in Group 3, and the total dose delivered to each animal for the 5 day period was 3.6 mg. The dosing for Groups 1-3 is summarized in Table 5.
All animals in Groups 1-3 were observed twice daily for mortality and moribund appearance during the 5-day dosing period and during an at least 16-day pretest period. Clinical examinations were performed daily for all animals following surgery to implant the Alzet pumps. Detailed physical examinations were conducted on all animals approximately weekly during a pretest period of at least 16 days, prior to beginning dosing (Day 0), and on Day 5 prior to euthanasia. Individual body weights were recorded at least weekly during the pretest period, on Day 0 prior to dosing, and on Day 5 prior to euthanasia. Individual food consumption was recorded approximately weekly during the pretest period, on Day 0 prior to dosing, and on Day 5 prior to euthanasia. Blood samples for determination of plasma drug concentration were collected from all animals at approximately 4, 8, and 24 hours after pump implantation on Day 0 and immediately prior to euthanasia on Day 5 (120 hours after the start of dosing). Blood was collected via the retro-orbital sinus from animals anesthetized with isoflurane into chilled tubes containing K3-EDTA. Following the final blood collection, the animals were euthanized and discarded. […]

[1] = female, Sprague Dawley, rat, in vivo, sc, 0.18 mg
[2] = female, Sprague Dawley, rat, in vivo, sc, 1.8 mg
[3] = female, Sprague Dawley, rat, in vivo, sc, 3.6 mg

## EVVPPQVLSEPNEEAGAALSPLPEVPPWTGEVSPAQR [VD, Vessel Dilator]
Sprague Dawley, rat, in vivo, sc, 0.18 mg total dose, male rats N=3, 0.180 mg, 8 hours post-dosing, read-out: Mean concentration of vessel dilator in plasma
  level at 8 h: 11.9 ng/mL
Sprague Dawley, rat, in vivo, sc, 0.18 mg, male rats N=3, 0.180 mg, 4 hours post-dosing (from start of infusion), read-out: Mean concentration of vessel dilator in plasma
  level at 4 h: 17.1 ng/mL
Sprague Dawley, rat, in vivo, sc, 0.18 mg, male rats N=3, 0.180 mg, 24 hours post-dosing, read-out: Mean concentration of vessel dilator in plasma
  level at 24 h: 13.3 ng/mL
Sprague Dawley, rat, in vivo, sc, 0.18 mg, male rats N=3, 0.180 mg, 120 hours post-dosing, all samples, read-out: Mean concentration of vessel dilator in plasma
  level at 120 h: 78.6 ng/mL
Sprague Dawley, rat, in vivo, sc, 1.8 mg total dose, male rats N=3, 1.80 mg, 8 hours post-dosing, read-out: Mean concentration of vessel dilator in plasma
  level at 8 h: 204 ng/mL
Sprague Dawley, rat, in vivo, sc, 1.8 mg, male rats N=3, 1.80 mg, 4 hours post-dosing, read-out: Mean concentration of vessel dilator in plasma
  level at 4 h: 62.3 ng/mL
Sprague Dawley, rat, in vivo, sc, 1.8 mg, male rats N=3, 1.80 mg, 24 hours post-dosing, read-out: Mean concentration of vessel dilator in plasma
  level at 24 h: 167 ng/mL
Sprague Dawley, rat, in vivo, sc, 1.8 mg, male rats N=3, 1.80 mg, 120 hours post-dosing, read-out: Mean concentration of vessel dilator in plasma
  level at 120 h: 214 ng/mL
Sprague Dawley, rat, in vivo, sc, 3.6 mg, male rats N=3, 3.60 mg, 4 hours post-dosing, read-out: Mean concentration of vessel dilator in plasma
  level at 4 h: 370 ng/mL
Sprague Dawley, rat, in vivo, sc, 3.6 mg, male rats N=3, 3.60 mg, 8 hours post-dosing, read-out: Mean concentration of vessel dilator in plasma
  level at 8 h: 255 ng/mL
Sprague Dawley, rat, in vivo, sc, 3.6 mg, male rats N=3, 3.60 mg, 24 hours post-dosing, read-out: Mean concentration of vessel dilator in plasma
  level at 24 h: 168 ng/mL
Sprague Dawley, rat, in vivo, sc, 3.6 mg, male rats N=3, 3.60 mg, 120 hours post-dosing, read-out: Mean concentration of vessel dilator in plasma
  level at 120 h: 261 ng/mL
Female rats
  maximum tolerated dose for prolonged subcutaneous administration: > 2300 ng/kg·min
[1]
  level at 4 h: 27.5 ng/mL
  level at 8 h: 31.6 ng/mL
  level at 24 h: 33.2 ng/mL
  level at 120 h: 27.1 ng/mL
[2]
  level at 4 h: 135 ng/mL
  level at 8 h: 275 ng/mL
  level at 24 h: 320 ng/mL
  level at 120 h: 265 ng/mL
[3]
  level at 4 h: 725 ng/mL
  level at 8 h: 454 ng/mL
  level at 24 h: 427 ng/mL
  level at 120 h: 567 ng/mL
Male rats, 1.80 mg total dose
  Cmin: 62.3 ng/mL
Male rats, 3.60 mg total dose
  Cmin: 167 ng/mL
Male rats
  maximum tolerated dose for prolonged subcutaneous administration: above 1300 ng/kg·min
male, Sprague Dawley, rat, in vivo, sc, Tmax
  Tmax: 81.3 h
rat, in vivo
  clinical signs of toxicity: None of the animals in Groups 1-3 showed clinical signs of toxicity
rat, in vivo, sc
  plasma concentration up to which no toxicity issues were shown: approx. 740 ng/mL
rats, 3.60 mg, similar when normalized to weight
  AUCτ of Group 3 females compared to Group 3 males: up to 2 fold
rats, 5-day dosing period
  clinical observations, body weight gain, food consumption: no remarkable clinical observations, effects on body weight gain or effects on food consumption
rats, Groups 1-3
  survival: all animals survived until euthanasia
